From ChEMBL document CHEMBL1201862, “PubChem BioAssay data set” (2004)
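Cells were grown in 96-well plates and exposed to each compound for 48 hours at five concentrations; endpoints were interpolated linearly between bracketing concentrations, or set to the highest concentration if not reached. GI50 is the concentration that inhibits growth by half.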 Active and inactive are the calls of the source. Rule as the data show it: active = GI50 up to about 1.1 µM and inactive = higher.

Columns and labels:
Test in all cases: NCI-60 cell line screen, 48 h
SNB-19 = test system: SNB-19
U-251 = test system: U-251
SNB-75 = test system: SNB-75
MOLT-4 = test system: MOLT-4
OVCAR-4 = test system: OVCAR-4
IGROV-1 = test system: IGROV-1
OVCAR-5 = test system: OVCAR-5
UACC-62 = test system: UACC-62
SW-620 = test system: SW-620
SK-MEL-5 = test system: SK-MEL-5
RXF 393 = test system: RXF 393
MDA-N = test system: MDA-N
M14 = test system: M14
HT-29 = test system: HT-29
SK-MEL-2 = test system: SK-MEL-2
TK-10 = test system: TK-10
A498 = test system: A498
HCT-116 = test system: HCT-116
SK-MEL-28 = test system: SK-MEL-28
HOP-92 = test system: HOP-92

SMILES	GI50 (SNB-19)	GI50 (U-251)	GI50 (SNB-75)	GI50 (MOLT-4)	GI50 (OVCAR-4)	GI50 (IGROV-1)	GI50 (OVCAR-5)	GI50 (UACC-62)	GI50 (SW-620)	GI50 (SK-MEL-5)	GI50 (RXF 393)	GI50 (MDA-N)	GI50 (M14)	GI50 (HT-29)	GI50 (SK-MEL-2)	GI50 (TK-10)	GI50 (A498)	GI50 (HCT-116)	GI50 (SK-MEL-28)	GI50 (HOP-92)
Cc1ccc([N+](=O)[O-])cc1NC1=NCCO1	> 100 µM (inactive)	> 100 µM (inactive)	> 100 µM (inactive)	> 100 µM (inactive)	> 100 µM (inactive)	> 100 µM (inactive)	> 100 µM (inactive)	> 100 µM (inactive)	> 100 µM (inactive)	> 100 µM (inactive)	> 100 µM (inactive)	> 100 µM (inactive)	> 100 µM (inactive)	> 100 µM (inactive)	> 100 µM (inactive)	> 100 µM (inactive)	> 100 µM (inactive)	> 100 µM (inactive)	> 100 µM (inactive)	–
COC(=O)[C@H](NC(=O)OC(C)(C)C)[C@H]1COC(C)(C)O1	> 100 µM (inactive)	> 100 µM (inactive)	–	> 100 µM (inactive)	> 100 µM (inactive)	> 100 µM (inactive)	> 100 µM (inactive)	> 100 µM (inactive)	> 100 µM (inactive)	> 100 µM (inactive)	> 100 µM (inactive)	> 100 µM (inactive)	> 100 µM (inactive)	> 100 µM (inactive)	> 100 µM (inactive)	> 100 µM (inactive)	> 100 µM (inactive)	> 100 µM (inactive)	> 100 µM (inactive)	–
c1ccc(SCCP(CCP(c2ccccc2)c2ccccc2)c2ccccc2)cc1 (stereo not drawn)	2.95 µM (inactive)	1.89 µM (inactive)	0.948 µM (active)	11.4 µM (inactive)	6.14 µM (inactive)	6.34 µM (inactive)	46.6 µM (inactive)	–	13.3 µM (inactive)	14 µM (inactive)	3.9 µM (inactive)	7.52 µM (inactive)	10.5 µM (inactive)	3.47 µM (inactive)	3.07 µM (inactive)	12.1 µM (inactive)	–	1.89 µM (inactive)	21.3 µM (inactive)	2.29 µM (inactive)
CC(=O)Oc1cc(-c2oc3cc(OC(C)=O)c(C4OC(CO)C(O)C(O)C4O)c(OC(C)=O)c3c(=O)c2O)c(OC(C)=O)cc1O (stereo not drawn)	–	> 100 µM (inactive)	60.4 µM (inactive)	> 100 µM (inactive)	> 100 µM (inactive)	> 100 µM (inactive)	> 100 µM (inactive)	> 100 µM (inactive)	> 100 µM (inactive)	> 100 µM (inactive)	> 100 µM (inactive)	> 100 µM (inactive)	> 100 µM (inactive)	> 100 µM (inactive)	> 100 µM (inactive)	> 100 µM (inactive)	–	> 100 µM (inactive)	–	26.3 µM (inactive)
CN(Cc1nc2c(N)nc(N)nc2nc1N)c1ccc(C(=O)NC(CCC(=O)O)C(=O)O)cc1 (stereo not drawn)	64.6 µM (inactive)	0.494 µM (active)	7.45 µM (inactive)	< 0.0163 µM (active)	> 100 µM (inactive)	3.07 µM (inactive)	17.7 µM (inactive)	0.0603 µM (active)	0.033 µM (active)	1.55 µM (inactive)	> 100 µM (inactive)	0.0442 µM (active)	0.0615 µM (active)	< 0.01 µM (active)	> 100 µM (inactive)	0.752 µM (active)	–	< 0.01 µM (active)	> 76.4 µM (inactive)	> 100 µM (inactive)
CC(=O)OCC(OC(C)=O)C(OC(C)=O)C(OC(C)=O)C(/C=N\Nc1nc2ccccc2c(=O)[nH]1)OC(C)=O (stereo not drawn)	> 100 µM (inactive)	> 100 µM (inactive)	27.6 µM (inactive)	> 100 µM (inactive)	–	–	> 100 µM (inactive)	> 100 µM (inactive)	> 100 µM (inactive)	> 100 µM (inactive)	> 100 µM (inactive)	> 100 µM (inactive)	> 100 µM (inactive)	> 100 µM (inactive)	> 100 µM (inactive)	–	–	> 100 µM (inactive)	> 100 µM (inactive)	> 100 µM (inactive)
CCOC(=O)C1=C(C)NC(c2ccccc2)=C(C(=O)OCc2ccccc2)C1C#Cc1ccccc1 (stereo not drawn)	> 100 µM (inactive)	> 100 µM (inactive)	> 100 µM (inactive)	> 100 µM (inactive)	–	79.8 µM (inactive)	> 100 µM (inactive)	> 100 µM (inactive)	> 100 µM (inactive)	> 100 µM (inactive)	> 100 µM (inactive)	0.274 µM (active)	> 100 µM (inactive)	–	> 100 µM (inactive)	> 100 µM (inactive)	> 100 µM (inactive)	> 100 µM (inactive)	–	–
